# Data reported in PubChem BioAssay AID1963975 (Molecular Pharmacology Branch, DTP, NCI, 2024).
# Test system: 624824-186-R-J2-PDC multicell spheroids, viability
# Experiment: Anticancer human tumor 624824-186-R-J2-PDC patient-derived colon adenocarcinoma cell line growth inhibition [PI3K]
# Details: for IC50: curve of first compound; for viability, T/C: stronger effect = lower value
# How it was run: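 Agents were dosed from a top concentration near clinical Cmax (otherwise 10 microM) in half-log decrements, alone or combined with PI3K inhibitors. The spheroids contain tumor cells plus endothelial (HUVEC) and MSC stroma; viability is measured.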
# [1] = second compound 0.0316 µM, first compound 0.0316 µM
# [2] = second compound 0.0316 µM, first compound 0.1 µM
# [3] = second compound 0.0316 µM, first compound 0.316 µM
# [4] = second compound 0.0316 µM, first compound 1 µM
# [5] = second compound 0.0316 µM, first compound 3.16 µM
# [6] = second compound 0.0316 µM, first compound 10 µM
# [7] = second compound 0.1 µM, first compound 0.0316 µM
# [8] = second compound 0.1 µM, first compound 0.1 µM
# [9] = second compound 0.1 µM, first compound 0.316 µM
# [10] = second compound 0.1 µM, first compound 1 µM
# [11] = second compound 0.1 µM, first compound 3.16 µM
# [12] = second compound 0.1 µM, first compound 10 µM
# [13] = second compound 0.316 µM, first compound 0.0316 µM
# [14] = second compound 0.316 µM, first compound 0.1 µM
# [15] = second compound 0.316 µM, first compound 0.316 µM
# [16] = second compound 0.316 µM, first compound 1 µM
# [17] = second compound 0.316 µM, first compound 3.16 µM
# [18] = second compound 0.316 µM, first compound 10 µM
# [19] = second compound 1 µM, first compound 0.0316 µM
# [20] = second compound 1 µM, first compound 0.1 µM
# [21] = second compound 1 µM, first compound 0.316 µM
# [22] = second compound 1 µM, first compound 1 µM
# [23] = second compound 1 µM, first compound 3.16 µM
# [24] = second compound 1 µM, first compound 10 µM
# [25] = second compound 3.16 µM, first compound 0.0316 µM
# [26] = second compound 3.16 µM, first compound 0.1 µM
# [27] = second compound 3.16 µM, first compound 0.316 µM
# [28] = second compound 3.16 µM, first compound 1 µM
# [29] = second compound 3.16 µM, first compound 3.16 µM
# [30] = second compound 3.16 µM, first compound 10 µM
# [31] = second compound 10 µM, first compound 0.0316 µM
# [32] = second compound 10 µM, first compound 0.1 µM
# [33] = second compound 10 µM, first compound 0.316 µM
# [34] = second compound 10 µM, first compound 1 µM
# [35] = second compound 10 µM, first compound 3.16 µM
# [36] = second compound 10 µM, first compound 10 µM
# 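Also: spheroids exposed to agents for 7 days before viability read.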
# 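For viability, T/C in this document: 100% = DMSO vehicle treated spheroids.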
smiles,measurement,setting,value
C#Cc1c(F)ccc2cc(O)cc(-c3ncc4c(N5CC6CCC(C5)N6)nc(OCC56CCCN5CC(F)C6)nc4c3F)c12 (stereo not given) + Cc1nc(NC(=O)N2CCCC2C(N)=O)sc1-c1ccnc(C(C)(C)C(F)(F)F)c1,IC50,second compound 0.0316 µM,> 10 µM
same,IC50,second compound 0.1 µM,> 10 µM
same,IC50,second compound 0.316 µM,> 10 µM
same,IC50,second compound 1 µM,> 10 µM
same,IC50,second compound 3.16 µM,> 10 µM
same,IC50,second compound 10 µM,> 10 µM
same,"viability, T/C",[1],86.3%
same,"viability, T/C",[2],82.9%
same,"viability, T/C",[3],70.8%
same,"viability, T/C",[4],80.9%
same,"viability, T/C",[5],96.7%
same,"viability, T/C",[6],71%
same,"viability, T/C",[7],90.9%
same,"viability, T/C",[8],83.5%
same,"viability, T/C",[9],73%
same,"viability, T/C",[10],76.6%
same,"viability, T/C",[11],88.6%
same,"viability, T/C",[12],60.4%
same,"viability, T/C",[13],74.4%
same,"viability, T/C",[14],67.2%
same,"viability, T/C",[15],81.1%
same,"viability, T/C",[16],84.2%
same,"viability, T/C",[17],70.9%
same,"viability, T/C",[18],73.2%
same,"viability, T/C",[19],97%
same,"viability, T/C",[20],82.7%
same,"viability, T/C",[21],76.1%
same,"viability, T/C",[22],82.1%
same,"viability, T/C",[23],79.8%
same,"viability, T/C",[24],82.2%
same,"viability, T/C",[25],78.3%
same,"viability, T/C",[26],83.8%
same,"viability, T/C",[27],69.5%
same,"viability, T/C",[28],81.8%
same,"viability, T/C",[29],81.2%
same,"viability, T/C",[30],71.5%
same,"viability, T/C",[31],73.7%
same,"viability, T/C",[32],74.2%
same,"viability, T/C",[33],60%
same,"viability, T/C",[34],58.5%
same,"viability, T/C",[35],58%
same,"viability, T/C",[36],56.3%
C=CC(=O)N1CCN(c2nc(=O)n(-c3c(C)ccnc3C(C)C)c3nc(-c4c(O)cccc4F)c(F)cc23)C(C)C1 (stereo not given) + Cc1nc(NC(=O)N2CCCC2C(N)=O)sc1-c1ccnc(C(C)(C)C(F)(F)F)c1,IC50,second compound 0.0316 µM,> 10 µM
same,IC50,second compound 0.1 µM,> 10 µM
same,IC50,second compound 0.316 µM,> 10 µM
same,IC50,second compound 1 µM,> 10 µM
same,IC50,second compound 3.16 µM,> 10 µM
same,IC50,second compound 10 µM,> 10 µM
same,"viability, T/C",[1],98%
same,"viability, T/C",[2],71.2%
same,"viability, T/C",[3],101%
same,"viability, T/C",[4],101%
same,"viability, T/C",[5],92.8%
same,"viability, T/C",[6],100%
same,"viability, T/C",[7],91.9%
same,"viability, T/C",[8],107%
same,"viability, T/C",[9],105%
same,"viability, T/C",[10],80%
same,"viability, T/C",[11],93.9%
same,"viability, T/C",[12],101%
same,"viability, T/C",[13],112%
same,"viability, T/C",[14],87.8%
same,"viability, T/C",[15],91.2%
same,"viability, T/C",[16],79.9%
same,"viability, T/C",[17],90.8%
same,"viability, T/C",[18],87%
same,"viability, T/C",[19],86.2%
same,"viability, T/C",[20],79.5%
same,"viability, T/C",[21],70.4%
same,"viability, T/C",[22],84.9%
same,"viability, T/C",[23],85.2%
same,"viability, T/C",[24],67.5%
same,"viability, T/C",[25],86.8%
same,"viability, T/C",[26],88.1%
same,"viability, T/C",[27],92%
same,"viability, T/C",[28],83%
same,"viability, T/C",[29],82.6%
same,"viability, T/C",[30],93.9%
same,"viability, T/C",[31],79.2%
same,"viability, T/C",[32],86.5%
same,"viability, T/C",[33],79.5%
same,"viability, T/C",[34],91.5%
same,"viability, T/C",[35],84.1%
same,"viability, T/C",[36],77.2%
CC(Cn1ccc(-c2ccc(C#N)c(Cl)c2)n1)NC(=O)c1cc(C(C)O)[nH]n1 (stereo not given) + Cc1nc(NC(=O)N2CCCC2C(N)=O)sc1-c1ccnc(C(C)(C)C(F)(F)F)c1,IC50,second compound 0.0316 µM,> 10 µM
same,IC50,second compound 0.1 µM,> 10 µM
same,IC50,second compound 0.316 µM,> 10 µM
same,IC50,second compound 1 µM,> 10 µM
same,IC50,second compound 3.16 µM,> 10 µM
same,IC50,second compound 10 µM,> 10 µM
same,"viability, T/C",[1],85.3%
same,"viability, T/C",[2],111%
same,"viability, T/C",[3],70.8%
same,"viability, T/C",[4],92.2%
same,"viability, T/C",[5],93.3%
same,"viability, T/C",[6],114%
same,"viability, T/C",[7],102%
same,"viability, T/C",[8],76.3%
same,"viability, T/C",[9],74.3%
same,"viability, T/C",[10],76.6%
same,"viability, T/C",[11],88.2%
same,"viability, T/C",[12],90%
same,"viability, T/C",[13],96.9%
same,"viability, T/C",[14],90.5%
same,"viability, T/C",[15],86.1%
same,"viability, T/C",[16],76.9%
same,"viability, T/C",[17],82.5%
same,"viability, T/C",[18],85.7%
same,"viability, T/C",[19],88.6%
same,"viability, T/C",[20],69.9%
same,"viability, T/C",[21],71.5%
same,"viability, T/C",[22],71.6%
same,"viability, T/C",[23],87.9%
same,"viability, T/C",[24],86.9%
same,"viability, T/C",[25],80.5%
same,"viability, T/C",[26],93%
same,"viability, T/C",[27],89.7%
same,"viability, T/C",[28],78.7%
same,"viability, T/C",[29],80.2%
same,"viability, T/C",[30],84.7%
same,"viability, T/C",[31],64.8%
same,"viability, T/C",[32],65.2%
same,"viability, T/C",[33],74.8%
same,"viability, T/C",[34],61.4%
same,"viability, T/C",[35],69.6%
same,"viability, T/C",[36],66.6%
CC1(C)CCC(Nc2ncc(C(F)(F)F)c(-c3c[nH]c4c(P(C)(C)=O)c(C#N)ccc34)n2)CN1 (stereo not given) + Cc1nc(NC(=O)N2CCCC2C(N)=O)sc1-c1ccnc(C(C)(C)C(F)(F)F)c1,IC50,second compound 0.0316 µM,4.26 µM
same,IC50,second compound 0.1 µM,4.34 µM
same,IC50,second compound 0.316 µM,4.4 µM
same,IC50,second compound 1 µM,4.64 µM
same,IC50,second compound 3.16 µM,3.67 µM
same,IC50,second compound 10 µM,1.61 µM
same,"viability, T/C",[1],81.3%
same,"viability, T/C",[2],99.4%
same,"viability, T/C",[3],103%
same,"viability, T/C",[4],121%
same,"viability, T/C",[5],64.8%
same,"viability, T/C",[6],7.6%
same,"viability, T/C",[7],92.7%
same,"viability, T/C",[8],92.9%
same,"viability, T/C",[9],99.4%
same,"viability, T/C",[10],108%
same,"viability, T/C",[11],66.1%
same,"viability, T/C",[12],7.74%
same,"viability, T/C",[13],100%
same,"viability, T/C",[14],81.8%
same,"viability, T/C",[15],92.1%
same,"viability, T/C",[16],115%
same,"viability, T/C",[17],67.6%
same,"viability, T/C",[18],6.46%
same,"viability, T/C",[19],96%
same,"viability, T/C",[20],93.4%
same,"viability, T/C",[21],97.7%
same,"viability, T/C",[22],93.6%
same,"viability, T/C",[23],72%
same,"viability, T/C",[24],5.53%
same,"viability, T/C",[25],79%
same,"viability, T/C",[26],83.8%
same,"viability, T/C",[27],91.4%
same,"viability, T/C",[28],74%
same,"viability, T/C",[29],57.3%
same,"viability, T/C",[30],5.49%
same,"viability, T/C",[31],77.8%
same,"viability, T/C",[32],73.8%
same,"viability, T/C",[33],62%
same,"viability, T/C",[34],54.5%
same,"viability, T/C",[35],45.2%
same,"viability, T/C",[36],6.69%
Cn1nccc1Nc1nccc(-c2ccn(C(CO)c3ccc(Cl)c(F)c3)c(=O)c2)n1 (stereo not given) + Cc1nc(NC(=O)N2CCCC2C(N)=O)sc1-c1ccnc(C(C)(C)C(F)(F)F)c1,IC50,second compound 0.0316 µM,> 10 µM
same,IC50,second compound 0.1 µM,> 10 µM
same,IC50,second compound 0.316 µM,> 10 µM
same,IC50,second compound 1 µM,> 10 µM
same,IC50,second compound 3.16 µM,1.56 µM
same,IC50,second compound 10 µM,0.276 µM
same,"viability, T/C",[1],88.2%
same,"viability, T/C",[2],79.8%
same,"viability, T/C",[3],72.2%
same,"viability, T/C",[4],92%
same,"viability, T/C",[5],95.7%
same,"viability, T/C",[6],101%
same,"viability, T/C",[7],68.3%
same,"viability, T/C",[8],68.6%
same,"viability, T/C",[9],78.5%
same,"viability, T/C",[10],81.4%
same,"viability, T/C",[11],108%
same,"viability, T/C",[12],83.2%
same,"viability, T/C",[13],90.1%
same,"viability, T/C",[14],72.8%
same,"viability, T/C",[15],74%
same,"viability, T/C",[16],91.9%
same,"viability, T/C",[17],96.3%
same,"viability, T/C",[18],81.9%
same,"viability, T/C",[19],82.9%
same,"viability, T/C",[20],79%
same,"viability, T/C",[21],65.5%
same,"viability, T/C",[22],74.9%
same,"viability, T/C",[23],76.3%
same,"viability, T/C",[24],52.3%
same,"viability, T/C",[25],80.5%
same,"viability, T/C",[26],61.6%
same,"viability, T/C",[27],65%
same,"viability, T/C",[28],54.6%
same,"viability, T/C",[29],44.2%
same,"viability, T/C",[30],37.3%
same,"viability, T/C",[31],66.4%
same,"viability, T/C",[32],58.6%
same,"viability, T/C",[33],47.8%
same,"viability, T/C",[34],37.8%
same,"viability, T/C",[35],19.2%
same,"viability, T/C",[36],5.96%
